These results are taken from article PMC8565778, “Evaluation of health benefits of sea lamprey (Petromyzon marinus) isolates using in vitro antiinflammatory and antioxidant assays” (PLoS ONE, 2021).

Structures are written as SMILES.

Assay [1] has as its target T1, COX-2 (cyclooxygenase enzyme-2) (Homo sapiens, UniProt P35354).
T1 construct: gene PTGS2
T1 sequence (P35354 18-604): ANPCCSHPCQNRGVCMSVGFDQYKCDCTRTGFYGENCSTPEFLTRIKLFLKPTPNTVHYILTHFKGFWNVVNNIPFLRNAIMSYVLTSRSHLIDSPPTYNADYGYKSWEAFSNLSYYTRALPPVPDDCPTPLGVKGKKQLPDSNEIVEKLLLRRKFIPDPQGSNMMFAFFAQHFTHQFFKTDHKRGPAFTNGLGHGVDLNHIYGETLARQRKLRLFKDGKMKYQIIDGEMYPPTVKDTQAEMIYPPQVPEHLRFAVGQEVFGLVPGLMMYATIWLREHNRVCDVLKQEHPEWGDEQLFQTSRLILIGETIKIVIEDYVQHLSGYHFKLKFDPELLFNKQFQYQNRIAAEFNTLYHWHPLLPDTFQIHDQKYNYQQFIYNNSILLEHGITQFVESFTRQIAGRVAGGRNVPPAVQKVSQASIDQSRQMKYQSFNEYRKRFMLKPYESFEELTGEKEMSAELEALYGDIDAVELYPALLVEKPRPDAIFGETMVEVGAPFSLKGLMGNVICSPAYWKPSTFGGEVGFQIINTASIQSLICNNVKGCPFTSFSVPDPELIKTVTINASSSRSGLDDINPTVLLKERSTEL
Description: biochemical. The conditions noted are these: read-out: Bioassay results / COX-2 ^a.

For assay [2], the target named is T2, COX-1 (cyclooxygenase enzyme-1) (Ovis aries, UniProt P05979).
T2 construct: gene PTGS1
T2 sequence (P05979 25-600): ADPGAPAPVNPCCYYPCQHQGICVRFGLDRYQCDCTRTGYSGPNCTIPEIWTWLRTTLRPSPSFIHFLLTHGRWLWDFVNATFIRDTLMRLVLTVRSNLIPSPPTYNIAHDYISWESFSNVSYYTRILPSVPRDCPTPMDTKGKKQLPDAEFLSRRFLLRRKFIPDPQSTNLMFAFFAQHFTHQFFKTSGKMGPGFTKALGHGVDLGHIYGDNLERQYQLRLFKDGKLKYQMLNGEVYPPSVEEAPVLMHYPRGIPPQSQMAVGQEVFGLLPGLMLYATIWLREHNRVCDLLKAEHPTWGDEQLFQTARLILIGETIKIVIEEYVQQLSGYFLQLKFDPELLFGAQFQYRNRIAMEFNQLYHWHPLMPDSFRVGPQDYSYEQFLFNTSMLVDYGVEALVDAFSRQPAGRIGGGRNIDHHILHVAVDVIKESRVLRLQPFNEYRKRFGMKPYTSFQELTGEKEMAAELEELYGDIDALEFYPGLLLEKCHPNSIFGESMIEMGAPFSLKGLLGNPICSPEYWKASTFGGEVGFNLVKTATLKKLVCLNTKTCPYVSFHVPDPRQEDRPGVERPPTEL
Description: biochemical. As to conditions: read-out: Bioassay results / COX-1^a.

Assay [3] addresses T2, COX-1 (cyclooxygenase enzyme-1). Description: in vitro COX-1 enzyme inhibitory assay, single concentration […]. The class given is biochemical. As to conditions: read-out: Bioassay results / COX-1^a.
The target in assay [4] is T1, COX-2 (cyclooxygenase enzyme-2). Briefly: biochemical. More on the design: In vitro cyclooxygenase (COX-1 and COX-2) enzyme inhibition assay, percent inhibition. The conditions noted are these: read-out: % inhibition.
Assay [5] concerns the target T2, COX-1 (cyclooxygenase enzyme-1). Description: biochemical. More on the design: In vitro cyclooxygenase (COX-1 and COX-2) enzyme inhibition assay, percent inhibition. The conditions noted are these: read-out: % inhibition. Here is the method:
(see S1 File for experimental details). To evaluate the health-beneficial activity of the sea lamprey compounds, we included all isolates of sea lamprey extract for the evaluation of in vitro antiinflammatory and antioxidant activities. […] (S1 File). […] Antiinflammatory activities of arginine, tyrosine, tryptophan, asparagine and inosine were assayed at 50 μg/mL concentration.

On the set-up of assay [6]: Fe2+-induced liposome lipid peroxidation; per cent inhibition measured as loss of fluorescent probe signal. The conditions noted are these: large unilamellar vesicles; LPO (lipid peroxidation of large unilamellar liposomes, Fe2+-initiated); 25 ug/mL; inhibitor. Here is the method:
Pure compounds and positive controls were assayed for LPO inhibitory activities according to published procedures from our laboratory (see S1 File for experimental details). The antioxidant assay, the lipid peroxidation inhibitory (LPO) assay, used in this study measures free radical scavenging capability of pure compounds and extracts. In this assay, peroxidation of the lipid was initiated by the addition of Fe^2+ resulting in the generation of radicals, which cause the peroxidation of LUV and in turn the fluorescent probes embedded in it. The loss of fluorescent intensity in the assay indicates the oxidative damage to the lipid component of the LUV [11–15, 21] (S1 File). At 25 μg/mL concentration, cholesteryl palmitate, cholesteryl oleate, cholesteryl eicosapentaenoate and cholesteryl arachidonate inhibited LPO by 38, 60, 72 and 82%, respectively (Table 2) (Fig S in S1 File). The most abundant steroidal compound in sea lamprey was cholesterol and it lacked LPO inhibitory activity. Antioxidant activity profiles of the cholesterol esters were like its antiinflammatory profiles. That is, an increase in chain length and unsaturation increased the LPO activity. Majority of the lipophilic fraction of the sea lamprey extract consisted of glycerides and free fatty acids.

With `COc1ccc2cc([C@H](C)C(=O)O)ccc2c1` [compound 3, Naproxen], the inhibition at 12 µg/mL stood at 60.5% in assay [1] and 61.4% in assay [2].

Consider `CC(C)Cc1ccc(C(C)C(=O)O)cc1` (centres unmarked) [compound 4, Ibuprofen], for which the inhibition at 15 µg/mL in assay [3] turned out to be 56.4%.

What is called % inhibition is the share of the control response that was lost under treatment. Low values mean a weak effect, high ones a strong effect. Consider `CC/C=C\C/C=C\C/C=C\C/C=C\C/C=C\CCCC(=O)O[C@H]1CC[C@@]2(C)C(=CC[C@H]3[C@@H]4CC[C@H]([C@H](C)CCCC(C)C)[C@@]4(C)CC[C@@H]32)C1` [compound 10, Cholesteryl eicosapentaenoate], for which the inhibition at 25 µg/mL was 58.5 ± 1.7% in assay [4] and 63.9 ± 2.1% in assay [5]. For the same compound, in assay [6], the “% inhibition” value was determined as 72.0 ± 1.4%.

With `CCCCC/C=C\C/C=C\C/C=C\C/C=C\CCCC(=O)O[C@H]1CC[C@@]2(C)C(=CC[C@H]3[C@@H]4CC[C@H]([C@H](C)CCCC(C)C)[C@@]4(C)CC[C@@H]32)C1` [compound 11, Cholesteryl arachidonate], the inhibition at 25 µg/mL in assay [4] came to 67.9 ± 2.2%; in assay [5], 74.7 ± 0.4%. The “% inhibition” value in assay [6] came out at 82.0 ± 1.4%.

In the case of `N[C@@H](CS)C(=O)O` [compound 30, Cysteine], the “% inhibition” value in assay [6] turned out to be 47.0 ± 1.4%.

For `O=C(O)[C@@H]1CCCN1` [compound 31, Proline], the “% inhibition” value in assay [6] was 17.0 ± 1.4%.

Take `N[C@@H](CO)C(=O)O` [compound 32, Serine]: the “% inhibition” value in assay [6] amounted to 29.0 ± 1.4%.

Consider `N[C@@H](CC(=O)O)C(=O)O` [compound 33, Aspartic acid], for which, in assay [6], the “% inhibition” value was 36.5 ± 0.7%.

For `CN(CC(=O)O)C(=N)N` [compound 34, Creatine], the “% inhibition” value in assay [6] is on record as 16.5 ± 0.7%.

With `O=c1[nH]cnc2c1ncn2[C@@H]1O[C@H](CO)[C@@H](O)[C@H]1O` [compound 35, Inosine], the “% inhibition” value in assay [6] was 16.5 ± 2.1%.

For the compound `Nc1[nH]cnc2ncnc1-2` [compound 36, Adenine], the “% inhibition” value in assay [6] came to 19.5 ± 0.7%.

Consider `O=c1[nH]c(=O)c2nc[nH]c2[nH]1` [compound 37, Xanthine], for which, in assay [6], the “% inhibition” value came out at 22.0 ± 1.4%.

For the compound `O=c1[nH]cnc2nc[nH]c12` [compound 38, Hypoxanthine], the “% inhibition” value in assay [6] turned out to be 24.5 ± 0.7%.

In the case of `NCCCCN` [compound 41, Putrescine], the “% inhibition” value in assay [6] is 17.0 ± 1.4%.

In the case of `NCCCNCCCCNCCCN` [compound 42, Spermine], the “% inhibition” value in assay [6] came to 16.5 ± 0.7%.

As for `CCCC(=O)C(=O)O` [compound 43, α-Ketovaleric acid], in assay [6], the “% inhibition” value turned out to be 15.0 ± 1.4%.

Turning to `CC(C)C(=O)C(=O)O` [compound 44, α-Ketoisovaleric acid], the “% inhibition” value in assay [6] stood at 15.5 ± 0.7%.

In the case of `CCC(=O)C(=O)O` [compound 45, α-Ketobutyric acid], in assay [6], the “% inhibition” value is 16.5 ± 0.7%.

As for `CC(O)CC(=O)O` (stereo not drawn) [compound 46, β-Hydroxybutyric acid], in assay [6], the “% inhibition” value turned out to be 21.5 ± 0.7%.

Consider `CC(=O)C(=O)O` [compound 47, Pyruvic acid], for which the “% inhibition” value in assay [6] was 23.5 ± 0.7%.

As for `O=C(O)C(O)Cc1ccccc1` (centres unmarked) [compound 48, 3-Phenyllactic acid], the “% inhibition” value in assay [6] came to 25.0 ± 1.4%.
